Like-named read-outs stand apart in the source and are kept apart here.
Experiments:
[1] = system: mean arterial blood pressure (MBP) and coronary blood flow (Cor. BF); experiment: Hemodynamic effects in anesthetized open-chest dogs (i.v.); format: in vivo, mongrel dogs; details: Canis lupus familiaris; for change in vivo at 0.1 mg/kg: iv; for change in vivo at 0.3 mg/kg: 0.3 mg/kg iv, anesthetized dogs
Method: Mongrel dogs of either sex were anesthetized with pentobarbital sodium (30 mg/kg iv). The animals were artificially ventilated with room air. The chest was opened at the left 4th intercostal space. Mean arterial blood pressure (MBP), heart rate (HR), left ventricular pressure (LVP), max. dLVP/dt, mean pulmonary arterial blood pressure (MPAP), cardiac output (CO) and coronary blood flow (Cor. BF) were measured. The test compounds were injected into the femoral vein. […] BF from control values induced by intravenous injection of test compounds.

left coronary artery = experiment: Coronary vasodilating effects in dogs (intracoronary); format: in vivo, mongrel dogs
Method: Mongrel dogs of either sex were anesthetized and ventilated as previously described. A thoracotomy was performed at the 4th intercostal space. Following an intravenous injection of heprin (1000 units/kg), blood from the distal end of the cannulated carotid artery was pumped into circumflex branch of the left coronary artery using a servocontrolled peristaltic pump which maintained a constant perfusion pressure of 120 mmHg by means of a pump controller. An electromagnetic flow probe was inserted in the circit to record blood flow through the cannulated coronary artery. The test compounds were administered directly into the rubber tubing connected close to the coronary artery cannula.

dog coronary artery = experiment: Effect on 3,4-diaminopyridine (3,4-DAP)-induced rythmic contraction; format: cell-based; details: Canis lupus familiaris, read-out: IC50, 3,4-DAP contraction
Method: The ring segments were cannulated with two triangle stainless-steel hooks and suspended vertically in Krebs-Henseleit solution under the same condition described previously. Preparations were set up under a resting tension of 1.0 g and rhythmic contractions were induced by application of 10 mM 3,4-DAP. Test compound was cumulatively added into the medium. IC50 was estimated from dose-response curves (Table 2, column 2).

rabbit thoracic aorta = experiment: Effect on KCl-induced contraction of rabbit aorta; details: Oryctolagus cuniculus, read-out: IC50, K contraction
calcium channels = experiment: [^3 H]-nitrendipine binding to rat brain membrane
Beta-adrenoceptor [2] = biological target: T1, Beta-adrenoceptor (Rattus norvegicus, UniProt P18090); experiment: cell-based; details: isolated rat right atria, (-)-isoproterenol-induced positive chronotropy; read-out: KB (antagonist dissociation constant)
Text: Beta-adrenoceptor blocking effect of test compounds was estimated by antagonism of (-)-isoproterenol-induced positive chronotropy.

Beta-adrenoceptor [3] = biological target: T1, Beta-adrenoceptor; experiment: Beta-adrenoceptor blocking effect in reserpinized rats (isoproterenol chronotropy); format: in vivo, male Wistar rats; design: The rats were anesthetized with pentobarbital sodium; from tissue; host or cells: heart in the living anesthetized male Wistar rat (reserpine-pretreated, vagotomized); details: isoproterenol 0.1 μg/kg iv, cumulative iv doses, read-out: Beta-Blocking ED50 (50% blockade of positive chronotropic response to isoproterenol)
Method: (§1) The rats were pretreated with reserpine (8 mg/kg ip), 18 hr before experiments. […] The heart rate was measured with a cardiotachometer triggered by the QRS of the ECG (lead II) and recorded on a polygraph. After the Control response to isoproterenol at a dose of 0.1 μg/kg iv was obtained, the test compound was injected iv in increasing doses at 20 min intervals.

Beta-adrenoceptor [4] = biological target: T1, Beta-adrenoceptor; experiment: Intrinsic sympathomimetic activity (ISA) in reserpinized rats; format: in vivo, male Wistar rats; design: The rats were anesthetized with pentobarbital sodium; from tissue; host or cells: heart in the living anesthetized male Wistar rat (reserpine-pretreated, vagotomized); details: reserpine-pretreated rats, iv
Method: as §1
In this series of experiments, intrinsic sympathomimetic activity (ISA) was also evaluated.

[5] = read-out: percent change of Cor. BF from control
[6] = read-out: percent change of MBP from control
[7] = dog coronary artery, 10 mM 3,4-DAP

T1 sequence (P18090 whole entry): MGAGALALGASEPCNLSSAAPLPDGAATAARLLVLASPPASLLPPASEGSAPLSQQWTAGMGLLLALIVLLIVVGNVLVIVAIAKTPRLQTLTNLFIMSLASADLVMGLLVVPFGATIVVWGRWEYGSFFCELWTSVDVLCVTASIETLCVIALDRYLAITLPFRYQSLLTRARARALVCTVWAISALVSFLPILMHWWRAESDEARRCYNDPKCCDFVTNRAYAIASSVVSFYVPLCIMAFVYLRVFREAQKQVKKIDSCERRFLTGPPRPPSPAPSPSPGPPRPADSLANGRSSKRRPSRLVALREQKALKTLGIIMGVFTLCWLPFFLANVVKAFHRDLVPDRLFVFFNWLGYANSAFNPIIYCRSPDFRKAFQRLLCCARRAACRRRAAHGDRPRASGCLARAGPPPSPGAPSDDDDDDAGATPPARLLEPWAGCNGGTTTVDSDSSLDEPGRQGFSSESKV

Compound | change in vivo at 0.1 mg/kg [1, 5] [%] | change in vivo at 0.1 mg/kg [1, 6] [%] | ED100 pap (dose for 100% increase of Cor. BF; maximum response to papaverine 300 μg ia = 100%) (left coronary artery) [μg ia] | IC50 (dog coronary artery) [µM] | IC50 (rabbit thoracic aorta) [µM] | IC50 (dog coronary artery; [7]) [µM] | IC50 (calcium channels) [µM] | Ki (calcium channels) [µM] | Slope, ^3 H-Nitrendipine binding (calcium channels) | change in vivo at 0.3 mg/kg [1, 5] [%] | change in vivo at 0.3 mg/kg [1, 6] [%] | Duration of action of coronary vasodilating effect (left coronary artery; intracoronary (ia)) [min] | Kb (Beta-adrenoceptor [2]) [µM] | ED50 (Beta-adrenoceptor [3]) [mg/kg] | ISA (increase in HR) (Beta-adrenoceptor [4])
COc1ccc(CCN(C)CCCC(C#N)(c2ccc(OC)c(OC)c2)C(C)C)cc1OC (stereo not shown) [Verapamil, reference compound] | 95 | -23 | 8 | 0.126 | 0.075 |  |  |  |  |  |  |  |  |  | 
COC(=O)C1=C(C)NC(C)=C(C(=O)OCCN(C)Cc2ccccc2)C1c1cccc([N+](=O)[O-])c1 (stereo not shown) [Nicardipine, reference compound] |  |  |  |  | 0.001 | 0.0021 | 0.0016 | 0.0009 | 0.90 |  |  |  |  |  | 
COC(=O)C1=C(C)NC(C)=C(C(=O)OCCCCCCNCC(O)COc2ccccc2)C1c1cccc([N+](=O)[O-])c1.Cl (stereo not shown) [Example 12, 6-(2-hydroxy-3-phenoxy-propylamino)hexyl methyl 2,6-dimethyl-4-(m-nitro-phenyl)-1,4-dihydropyridine-3,5-dicarboxylate hydrochloride] |  |  | 100 |  | 0.033 | 0.019 | 0.012 | 0.00615 | 1.38 | 45 | -26 | > 60 | 0.063 | 0.6 | -

From patent publication US5591757A, “Dihydropyridine composition” (Yamanouchi Pharmaceutical Co., Ltd., priority 1984, dated 1997)
